The subject of series [1] is HCT-116. Description: Anticancer activity against human HCT-116 cells assessed as reduction in cell viability by measuring fold change in CPT-11 IC50 at 100 nM incubated for 5 days by MTT assay relative irinotecan alone. Format: functional. As to conditions: time 5 day. (Formazan colour is commonly taken as a measure of viable cells.)
The subject of series [2] is HCT-116. Briefly: Induction of apoptosis in human HCT-116 cells assessed as necrotic cells at 100 nM measured after 72 hrs in presence of CPT-11 by Annexin V-FITC staining based flow cytometric analysis (reference value: 2.41%). Format: functional. Background: Flow cytometry measures light scatter and fluorescence of single cells or particles in a stream.
The subject of series [3] is SW-620. Description: Radiosensitizing activity against human SW620 cells assessed as reduction in colony formation at 27 nM incubated after 14 days in the presence of 3 Gy irradiation by crystal violet staining based analysis. Format: functional, cell-based. As to conditions: time 14.0 day.
In series [4] the test system is HCT-116. Briefly: Induction of apoptosis in human HCT-116 cells assessed as viable cells at 30 nM measured after 72 hrs in presence of CPT-11 by Annexin V-FITC staining based flow cytometric analysis (reference value: 73.74%). Format: functional. Particulars: read-out: Activity.
The target of series [5] is T1, Serine-protein kinase ATM (Homo sapiens, UniProt Q13315). Briefly: Inhibition of ATM in human SW620 cells assessed as increase in gamma H2AX foci at 250 nM incubated for 24 hrs by confocal microscopic analysis. The format is cell-based.
Series [6] has as its system SW-620. Briefly: Induction of apoptosis in human SW620 cells assessed as necrotic cells at 100 nM measured after 72 hrs by Annexin V-FITC staining based flow cytometric analysis (reference value: 5.83%). The format is functional.
The target of series [7] is PI3K p110 beta/p85 alpha (Homo sapiens, UniProt P42338). Briefly: Inhibition of human PI3K p110 beta/p85 alpha using phosphatidylinositol-4, 5-bisphosphate as substrate incubated for 30 mins in the presence of Mg/ATP mix by HTRF-based analysis. The format is protein-complex assay.
Series [8] concerns HCT-116. Briefly: Induction of apoptosis in human HCT-116 cells assessed as early apoptotic cells at 100 nM measured after 72 hrs by Annexin V-FITC staining based flow cytometric analysis (reference value: 4.06%). The format is functional.
Series [9] deals with T1, Serine-protein kinase ATM. Description: Inhibition of ATM in human SW620 cells assessed as increase in gamma H2AX foci accumulation at 50 to 250 nM incubated for 24 hrs in the presence of CPT-11 by confocal microscopic analysis. The format is cell-based. Particulars: dose 50-250 nM.
Series [10] relates to HCT-116. Briefly: Induction of apoptosis in human HCT-116 cells assessed as necrotic cells at 100 nM measured after 72 hrs by Annexin V-FITC staining based flow cytometric analysis (reference value: 2.41%). The format is functional.
The target of series [11] is T1, Serine-protein kinase ATM. Description: Inhibition of ATM phosphorylation in human SW620 cells with IR-induced DNA damage in the presence of 1.5 Gy irradiation by Western blot analysis. Particulars: dose 3-250 nM. The format is cell-based.
Series [12] deals with SW-620. Description: Induction of apoptosis in human SW620 cells assessed as viable cells at 10 nM measured after 72 hrs in presence of CPT-11 by Annexin V-FITC staining based flow cytometric analysis (reference value: 87.36%). The format is functional. As to conditions: read-out: Activity.
Series [13] has as its system SW-620. Briefly: Induction of apoptosis in human SW620 cells assessed as late apoptotic cells at 100 nM measured after 72 hrs in presence of CPT-11 by Annexin V-FITC staining based flow cytometric analysis (reference value: 5.75%). Format: functional.
Series [14] has as its system HCT-116. Description: Induction of apoptosis in human HCT-116 cells assessed as viable cells at 1 uM measured after 72 hrs by Annexin V-FITC staining based flow cytometric analysis (reference value: 73.74%). The format is functional. As to conditions: read-out: Activity.
Series [15] in a line: Toxicity in BALB/c mouse xenografted with human SW620 cells assessed as spleen damage at 5 mg/kg, ip administered once daily and measured after 23 days by H&E staining based microscopic analysis. The format is organism-based, SW-620. As to conditions: in vivo, 552 h, time 23 day. A general note: Xenograft models place foreign cells or tissue in a host animal.
For series [16], the target named is Serine/threonine-protein kinase mTOR (Homo sapiens, UniProt P42345). Briefly: Inhibition of mTOR (unknown origin) incubated for 40 mins in the presence of Mn/ATP mix by scintillation counting analysis.

SMILES strings stand for the structures. pIC50: −log10 of the molar value. Calls of active or inactive are those of the source. No cut-off for these calls is given here.

In general, pIC50 refers to −log10 of the IC50, conventionally taken in molar units.

T1 sequence (Q13315 whole entry): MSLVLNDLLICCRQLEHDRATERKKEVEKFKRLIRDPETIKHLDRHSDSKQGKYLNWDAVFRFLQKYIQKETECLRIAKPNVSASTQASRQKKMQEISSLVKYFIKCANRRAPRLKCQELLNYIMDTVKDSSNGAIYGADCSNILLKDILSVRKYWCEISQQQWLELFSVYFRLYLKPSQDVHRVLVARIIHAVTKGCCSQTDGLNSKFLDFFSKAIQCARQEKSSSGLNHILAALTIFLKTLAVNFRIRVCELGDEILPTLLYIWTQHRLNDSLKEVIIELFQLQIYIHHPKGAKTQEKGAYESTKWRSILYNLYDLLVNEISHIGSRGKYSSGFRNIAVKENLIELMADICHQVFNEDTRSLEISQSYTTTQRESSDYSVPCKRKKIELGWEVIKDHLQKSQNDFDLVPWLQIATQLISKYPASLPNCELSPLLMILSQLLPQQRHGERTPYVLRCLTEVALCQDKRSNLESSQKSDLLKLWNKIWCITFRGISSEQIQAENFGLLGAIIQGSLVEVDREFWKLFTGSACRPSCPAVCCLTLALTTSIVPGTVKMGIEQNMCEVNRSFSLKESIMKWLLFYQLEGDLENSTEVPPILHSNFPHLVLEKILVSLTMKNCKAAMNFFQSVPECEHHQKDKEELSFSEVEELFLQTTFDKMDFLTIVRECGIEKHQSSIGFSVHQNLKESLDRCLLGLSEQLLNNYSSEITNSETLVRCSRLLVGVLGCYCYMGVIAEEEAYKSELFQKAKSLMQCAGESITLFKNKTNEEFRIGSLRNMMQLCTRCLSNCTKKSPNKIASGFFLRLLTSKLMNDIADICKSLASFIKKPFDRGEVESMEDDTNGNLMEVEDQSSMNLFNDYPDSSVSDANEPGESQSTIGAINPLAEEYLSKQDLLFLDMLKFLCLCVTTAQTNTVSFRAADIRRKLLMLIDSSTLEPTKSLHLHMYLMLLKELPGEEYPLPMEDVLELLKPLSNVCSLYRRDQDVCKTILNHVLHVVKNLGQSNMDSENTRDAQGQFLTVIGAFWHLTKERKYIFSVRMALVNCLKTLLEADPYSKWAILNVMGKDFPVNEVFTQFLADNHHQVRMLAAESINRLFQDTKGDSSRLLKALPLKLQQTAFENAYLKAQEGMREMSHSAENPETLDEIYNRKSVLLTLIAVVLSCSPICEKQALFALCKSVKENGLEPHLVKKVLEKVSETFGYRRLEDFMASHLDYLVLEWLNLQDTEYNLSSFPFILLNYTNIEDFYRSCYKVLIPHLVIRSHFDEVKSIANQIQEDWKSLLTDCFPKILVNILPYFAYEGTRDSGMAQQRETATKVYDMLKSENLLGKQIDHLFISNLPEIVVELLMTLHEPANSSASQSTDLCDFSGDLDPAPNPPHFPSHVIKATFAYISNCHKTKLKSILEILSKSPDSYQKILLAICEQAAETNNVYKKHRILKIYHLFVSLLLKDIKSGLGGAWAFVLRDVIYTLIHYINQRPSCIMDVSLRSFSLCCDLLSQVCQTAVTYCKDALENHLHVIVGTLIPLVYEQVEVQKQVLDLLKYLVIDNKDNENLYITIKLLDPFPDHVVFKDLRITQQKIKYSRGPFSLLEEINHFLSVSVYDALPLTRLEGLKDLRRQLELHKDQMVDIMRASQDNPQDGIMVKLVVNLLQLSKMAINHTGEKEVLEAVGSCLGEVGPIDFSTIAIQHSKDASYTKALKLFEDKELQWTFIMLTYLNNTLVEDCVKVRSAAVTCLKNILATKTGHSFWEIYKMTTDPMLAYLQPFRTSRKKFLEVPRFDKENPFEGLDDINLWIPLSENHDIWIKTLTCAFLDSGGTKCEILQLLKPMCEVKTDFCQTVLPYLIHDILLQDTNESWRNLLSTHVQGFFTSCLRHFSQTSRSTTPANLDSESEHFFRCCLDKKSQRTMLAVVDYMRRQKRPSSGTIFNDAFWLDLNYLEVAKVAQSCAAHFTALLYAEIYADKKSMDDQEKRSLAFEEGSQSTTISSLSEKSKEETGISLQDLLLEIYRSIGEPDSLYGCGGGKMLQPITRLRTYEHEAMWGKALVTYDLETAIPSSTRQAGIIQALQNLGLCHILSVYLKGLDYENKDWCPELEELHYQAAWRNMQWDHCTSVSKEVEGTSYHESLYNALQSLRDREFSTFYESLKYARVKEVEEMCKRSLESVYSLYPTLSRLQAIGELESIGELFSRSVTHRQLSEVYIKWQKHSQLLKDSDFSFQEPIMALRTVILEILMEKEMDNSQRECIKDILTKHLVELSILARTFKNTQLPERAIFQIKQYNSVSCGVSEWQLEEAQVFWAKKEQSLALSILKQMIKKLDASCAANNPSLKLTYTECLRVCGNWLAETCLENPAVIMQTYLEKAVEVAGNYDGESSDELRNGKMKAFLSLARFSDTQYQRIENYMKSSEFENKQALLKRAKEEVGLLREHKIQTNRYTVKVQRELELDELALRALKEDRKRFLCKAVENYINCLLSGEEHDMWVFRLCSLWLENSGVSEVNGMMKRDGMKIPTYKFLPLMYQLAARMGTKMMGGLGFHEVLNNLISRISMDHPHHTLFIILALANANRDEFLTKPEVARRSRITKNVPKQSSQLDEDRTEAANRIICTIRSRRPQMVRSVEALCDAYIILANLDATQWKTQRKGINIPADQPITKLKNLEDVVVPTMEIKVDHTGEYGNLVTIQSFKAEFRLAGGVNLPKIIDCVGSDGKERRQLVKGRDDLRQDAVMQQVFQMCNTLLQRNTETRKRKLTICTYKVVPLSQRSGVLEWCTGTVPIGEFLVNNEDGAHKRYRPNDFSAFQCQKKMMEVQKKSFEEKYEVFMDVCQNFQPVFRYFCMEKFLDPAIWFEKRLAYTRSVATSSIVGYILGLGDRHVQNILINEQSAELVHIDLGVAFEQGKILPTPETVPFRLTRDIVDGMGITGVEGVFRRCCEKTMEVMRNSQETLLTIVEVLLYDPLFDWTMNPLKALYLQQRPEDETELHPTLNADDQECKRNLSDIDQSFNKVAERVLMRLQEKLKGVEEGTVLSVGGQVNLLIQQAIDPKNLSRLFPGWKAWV
PI3K p110 beta/p85 alpha, sequence (P27986 whole entry): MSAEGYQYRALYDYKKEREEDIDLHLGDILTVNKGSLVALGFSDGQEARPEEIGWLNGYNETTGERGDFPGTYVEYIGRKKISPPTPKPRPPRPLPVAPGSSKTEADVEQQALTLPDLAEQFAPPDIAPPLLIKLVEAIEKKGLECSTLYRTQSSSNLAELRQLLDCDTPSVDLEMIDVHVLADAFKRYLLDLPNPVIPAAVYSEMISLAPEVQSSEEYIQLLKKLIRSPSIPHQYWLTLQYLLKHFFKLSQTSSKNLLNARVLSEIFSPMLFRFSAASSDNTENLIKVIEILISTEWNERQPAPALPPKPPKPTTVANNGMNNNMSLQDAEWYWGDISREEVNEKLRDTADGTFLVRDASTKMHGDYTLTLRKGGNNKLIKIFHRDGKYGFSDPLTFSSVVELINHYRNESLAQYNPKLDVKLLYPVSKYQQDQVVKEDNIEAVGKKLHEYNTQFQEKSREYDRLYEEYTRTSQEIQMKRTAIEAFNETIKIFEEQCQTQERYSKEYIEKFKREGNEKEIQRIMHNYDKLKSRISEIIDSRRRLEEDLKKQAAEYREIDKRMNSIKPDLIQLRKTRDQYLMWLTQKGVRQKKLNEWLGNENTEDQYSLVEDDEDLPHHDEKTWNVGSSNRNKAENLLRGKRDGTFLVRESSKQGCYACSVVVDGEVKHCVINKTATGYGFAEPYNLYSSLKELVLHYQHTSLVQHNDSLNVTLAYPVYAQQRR
PI3K p110 beta/p85 alpha, sequence (P42338 whole entry): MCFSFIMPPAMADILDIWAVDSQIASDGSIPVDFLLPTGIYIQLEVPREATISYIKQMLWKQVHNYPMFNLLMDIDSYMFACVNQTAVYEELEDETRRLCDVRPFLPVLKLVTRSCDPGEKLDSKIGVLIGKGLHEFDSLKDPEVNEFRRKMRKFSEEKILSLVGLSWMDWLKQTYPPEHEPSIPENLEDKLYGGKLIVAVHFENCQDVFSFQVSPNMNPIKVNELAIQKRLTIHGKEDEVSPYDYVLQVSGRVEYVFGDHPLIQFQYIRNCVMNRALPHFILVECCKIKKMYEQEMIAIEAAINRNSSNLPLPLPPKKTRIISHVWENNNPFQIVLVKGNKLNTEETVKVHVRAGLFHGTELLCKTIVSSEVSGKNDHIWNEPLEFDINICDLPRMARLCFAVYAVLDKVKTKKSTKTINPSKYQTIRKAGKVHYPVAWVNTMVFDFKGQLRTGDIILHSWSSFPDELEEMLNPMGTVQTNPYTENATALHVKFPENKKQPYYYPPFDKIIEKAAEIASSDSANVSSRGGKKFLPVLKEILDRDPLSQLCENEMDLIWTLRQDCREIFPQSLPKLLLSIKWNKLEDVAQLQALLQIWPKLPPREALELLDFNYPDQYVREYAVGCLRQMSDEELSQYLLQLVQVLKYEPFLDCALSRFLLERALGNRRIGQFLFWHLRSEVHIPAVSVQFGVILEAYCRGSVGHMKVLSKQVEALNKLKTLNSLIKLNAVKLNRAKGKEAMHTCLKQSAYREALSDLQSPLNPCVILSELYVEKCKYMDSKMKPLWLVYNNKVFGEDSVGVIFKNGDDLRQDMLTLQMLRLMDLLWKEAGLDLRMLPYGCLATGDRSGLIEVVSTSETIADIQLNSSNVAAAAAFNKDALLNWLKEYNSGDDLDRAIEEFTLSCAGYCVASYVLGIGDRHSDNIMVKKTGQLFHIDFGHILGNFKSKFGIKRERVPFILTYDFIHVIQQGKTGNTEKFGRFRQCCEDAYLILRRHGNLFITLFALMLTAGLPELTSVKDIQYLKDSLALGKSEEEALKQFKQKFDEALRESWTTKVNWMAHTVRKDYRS

For the compound `C[C@H](c1ccccc1)n1nnc2cnc3ccc(-c4ccc(OCCCN(C)C)nc4)cc3c21`, the “fold change (FC)” value in series [1] came to 16. Also, the Activity is listed as 7.04% in [2]; 6.3% in series [6]; 1.21% in series [8]; 9.24% in series [10]; 60.69% in series [13]; “Non-Toxic” in series [15]. For the same compound, the result in series [3] was Active. For the same compound, in series [4], the viability at 0.03 µM came to 25.7%. Moreover, the inhibition result in series [5] and in [9] was “Active” each time. The pIC50 in [7] is 5.73; in series [16], 6.67. Besides, in [11], the inhibition entry is “Dose-Dependent Effect”. In addition, the viability at 0.01 µM in series [12] worked out at 64.1%. Also, in [14], the viability at 1 µM was 62.1%.

The values above are taken from ChEMBL document CHEMBL5316381, “Discovery of [1,2,3]Triazolo[4,5-c]quinoline Derivatives as a New Class of Ataxia-Telangiectasia Mutated Kinase Inhibitors” (ACS Med Chem Lett, 2023).
